Results published in paper PMC9416741, “New-Generation Heterocyclic Bis-Pentamethinium Salts as Potential Cytostatic Drugs with Dual IL-6R and Mitochondria-Targeting Activity” (Pharmaceutics, 2022).
Where a name gives a salt, the structure may show the parent alone. Read-outs that look alike come from different tables or passages of the source.

Assays:
[1] = molecular target: IL-6R (Homo sapiens) (UniProt P08887); details: cited from earlier work
[2] = molecular target: T1, IL-6R (IL-6 receptor containing α and β subunits) (Homo sapiens, UniProt P08887+P40189); assay: microscale thermophoresis (T-jump); format: binding; details: read-out: dissociation constant
T1 construct: gene IL6R; commercial IL-6R (Bio-Techne R&D Systems), said to contain alpha and beta subunits
T1 sequence (P08887 20-365 limits assumed): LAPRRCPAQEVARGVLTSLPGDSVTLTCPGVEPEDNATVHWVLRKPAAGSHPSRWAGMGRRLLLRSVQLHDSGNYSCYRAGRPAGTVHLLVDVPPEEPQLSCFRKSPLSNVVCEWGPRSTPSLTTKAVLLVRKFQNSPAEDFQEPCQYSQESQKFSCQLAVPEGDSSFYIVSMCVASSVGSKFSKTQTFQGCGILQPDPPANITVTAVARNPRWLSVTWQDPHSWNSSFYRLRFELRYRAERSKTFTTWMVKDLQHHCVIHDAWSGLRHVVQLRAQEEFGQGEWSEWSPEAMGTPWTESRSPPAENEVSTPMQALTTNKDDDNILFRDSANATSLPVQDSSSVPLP
T1 sequence (P40189 23-619 limits assumed): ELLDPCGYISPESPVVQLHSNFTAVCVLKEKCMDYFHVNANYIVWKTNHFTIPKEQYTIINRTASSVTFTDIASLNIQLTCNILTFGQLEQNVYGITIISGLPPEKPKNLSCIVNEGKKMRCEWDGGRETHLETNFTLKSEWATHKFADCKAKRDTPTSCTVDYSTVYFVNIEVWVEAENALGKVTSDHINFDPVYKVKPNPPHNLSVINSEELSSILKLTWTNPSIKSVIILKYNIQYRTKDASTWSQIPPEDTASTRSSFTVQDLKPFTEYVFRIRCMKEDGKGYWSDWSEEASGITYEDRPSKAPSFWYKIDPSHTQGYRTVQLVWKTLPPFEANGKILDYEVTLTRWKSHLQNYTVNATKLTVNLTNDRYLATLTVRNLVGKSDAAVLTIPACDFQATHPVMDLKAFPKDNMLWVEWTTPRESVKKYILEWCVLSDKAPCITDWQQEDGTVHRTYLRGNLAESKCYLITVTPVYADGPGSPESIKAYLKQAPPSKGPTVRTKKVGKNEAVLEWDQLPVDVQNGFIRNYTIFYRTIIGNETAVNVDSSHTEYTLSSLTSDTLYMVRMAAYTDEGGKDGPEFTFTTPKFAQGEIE

[3] = in vitro; design: MTT metabolic activity assay, absorbance at 570 nm; details: human, single replicate
Description: (§1) A colorimetric MTT cell metabolic activity assay was used to determine the cytotoxicity of Bis-PMSs 5 and 6. For these experiments, the HF-P4, BJ-hTERT, BLM, A-2058, U-2 OS, H1299 and BT-20 cells were cultured under standard conditions (37 °C, humidified atmosphere with 5% CO2 in air) in culture medium (DMEM, RPMI-1640, McCoy’s or EMEM with 10% FBS). Cells were plated in 96-well plates at a density of 5000 cells per well and grown for 24 h. The medium was then replaced with a medium containing Bis-PMSs 5 and 6, and cells were cultured for an additional 48 h. Afterwards, the medium was exchanged for medium with the MTT yellow tetrazolium dye (3-(4,5-dimethylthiazol-2-yl)-2,5-diphenyltetrazolium bromide, Sigma-Aldrich) and incubated for 2 h at 37 °C. After that, the yellow tetrazole dye was removed and DMSO was used to dissolve the reduced purple formazan formed in living cells. The absorbance of the converted dye was measured at a wavelength of 570 nm with the reference of 630 nm using a SpectraMax ABS Plus microplate reader (Molecular Devices). Experiments were performed in quadruplicate and repeated three times with similar results. In U251MG and GL261 cells, an assay assessing cell growth independent of mitochondrial respiration was used. Cells were plated in 96-well plates at a density of 5000 cells per well and grown for 24 h under standard conditions in culture medium (DMEM and RPMI-1640 with 10% FBS for U251MG and Gl261 cells, respectively). The medium was then replaced by that supplemented with Bis-PMSs 5 and 6. After 72 h of exposure, surviving cells were fixed and stained with [compound left out] blue (5 g/L in 50%, v/v, ethanol) and lysed with 1% sodium dodecyl sulfate, and the relative cell number was determined by reading absorbance at 630 nm using a 96-well plate reader (Sunrise; Tecan, Männedorf, Switzerland). The cell inhibitory concentration (IC) was calculated using the equation IC = (APMS well/mean Acontrol wells) × 100%. The half-maximal inhibitory concentration (IC50) was calculated from dose–response curves using GraphPad Prism software (v. 8.0.1, La Jolla, CA, USA). The selectivity indexes towards cancer cells were calculated as a ratio of the average of the IC50 values for HF-P4 and BJ-hTERT human fibroblasts and the IC50 value for the corresponding cancer cell line. For U251MG and Gl261 glioblastoma cells, the cytoselectivity was calculated against normal HF P4 fibroblast cells, which were analyzed using the same cytotoxicity assay. The cytotoxic activities of Bis-PMSs 5 and 6 were evaluated in normal (HF-P4 and BJ-hTERT fibroblasts) and malignant (BLM, A-2058, U-2 OS, H1299, BT-20) cells using a conventional MTT viability assay. For the measurements, cells were exposed to 0–10 µM of Bis-PMSs 5 and 6 under standard conditions in a complete cell culture medium and cell viability was measured after 48 h of treatment. In addition, cytotoxicity was tested in U251MG and Gl261 glioma cells using an assay that assesses cell growth independent of mitochondrial respiration (Figures S10 and S11 and Table S3).

[4] = system: BJ-hTERT; assay: in vitro; design: MTT metabolic activity assay, absorbance at 570 nm; details: single replicate, 48 h
Description: as §1

[5] = system: HFP4; assay: in vitro; design: MTT metabolic activity assay, absorbance at 570 nm; details: single replicate, 48 h
Description: as §1

[6] = system: A2058; assay: cells; design: MTT metabolic activity assay, absorbance at 570 nm; details: Homo sapiens, A2058, 48 h, single replicate
Description: as §1

[7] = system: BLM; assay: cells; design: MTT metabolic activity assay, absorbance at 570 nm; details: 48 h, single replicate
Description: as §1

[8] = system: BT-20; assay: cells; design: MTT metabolic activity assay, absorbance at 570 nm; details: Homo sapiens, BT-20, 48 h, single replicate
Description: as §1

[9] = system: H1299; assay: cells; design: MTT metabolic activity assay, absorbance at 570 nm; details: Homo sapiens, NCI-H1299, 48 h, single replicate
Description: as §1

[10] = system: U2-OS; assay: cells; design: MTT metabolic activity assay, absorbance at 570 nm; details: Homo sapiens, U2OS, 48 h, single replicate
Description: as §1

[11] = system: Gl261; assay: cells; design: Cell growth by dye staining of fixed cells, absorbance at 630 nm, independent of mitochondrial respiration; details: Mus musculus, GL261, 72 h, single replicate
Description: as §1

[12] = system: U251; assay: cells; design: Cell growth by dye staining of fixed cells, absorbance at 630 nm, independent of mitochondrial respiration; details: Homo sapiens, U-251, 72 h, single replicate
Description: as §1

[13] = replicate 2, read-out: Bis-PMS 6 (IC50 / µM)
[14] = replicate 3, read-out: Bis-PMS 6 (IC50 / µM)
[15] = replicate 1, read-out: Bis-PMS 6 (IC50 / µM)
[16] = replicate 3, read-out: Bis-PMS 5 (IC50 / µM)
[17] = replicate 1, read-out: Bis-PMS 5 (IC50 / µM)
[18] = replicate 2, read-out: Bis-PMS 5 (IC50 / µM)

In the case of tocilizumab, the Kd [1] is given as 2.54 nM.

For `CN1C(=CC=C(C=CC2=[N+](C)c3ccccc3C2(C)C)c2cccc(C(C=CC3=[N+](C)c4ccccc4C3(C)C)=CC=C3N(C)c4ccccc4C3(C)C)c2)C(C)(C)c2ccccc21` [compound 6, m-bis-pentamethinium salt 6], the Kd [2] was 304 ± 27.6 nM, the CC50 at 48 h ([3]; hf-p4 cells, Bis-PMS 6 (IC50 / µM), replicate 1) was 1.05 µM and the CC50 [4, 13] was 1.66 µM. The CC50 [4, 14] was 0.776 µM, the CC50 [5, 14] was 1.95 µM and the IC50 [6, 15] was 0.191 µM. It also gave an IC50 [6, 13] of 1.07 µM, an IC50 [6, 14] of 0.646 µM and an IC50 [7, 15] of 0.933 µM. It also gave an IC50 [7, 14] of 1.91 µM, an IC50 [8, 15] of 0.724 µM and an IC50 [8, 13] of 0.617 µM. The IC50 [8, 14] was 0.997 µM, the IC50 [9, 13] was 0.199 µM and the IC50 [9, 14] was 0.138 µM. The IC50 [10, 15] was 0.257 µM, the IC50 [10, 13] was 0.347 µM and the IC50 [10, 14] was 0.123 µM. It also gave an IC50 [11, 15] of 0.218 µM, an IC50 [11, 13] of 0.319 µM and an IC50 [12, 15] of 0.485 µM. The IC50 [12, 13] was 0.526 µM.

Work on `CN1C(=CC=C(C=CC2=[N+](C)c3ccccc3C2(C)C)c2ccc(C(C=CC3=[N+](C)c4ccccc4C3(C)C)=CC=C3N(C)c4ccccc4C3(C)C)cc2)C(C)(C)c2ccccc21` [compound 5, p-bis-pentamethinium salt 5] yielded a Kd [2] of 26.5 ± 2.5 nM, a CC50 at 48 h ([3]; bj-htert cells, Bis-PMS 5 (IC50 / µM), replicate 2) of 1.7 µM and a CC50 [4, 16] of 1.62 µM. The CC50 [5, 17] was 1.78 µM, the CC50 [5, 18] was 0.427 µM and the CC50 [5, 16] was 0.757 µM. For the same compound, the IC50 [6, 18] was 0.396 µM, the IC50 [6, 16] was 0.178 µM and the IC50 [7, 17] was 0.417 µM. The IC50 [7, 16] was 0.183 µM, the IC50 [8, 17] was 0.832 µM and the IC50 [8, 18] was 0.38 µM. The IC50 [8, 16] was 0.891 µM, the IC50 [9, 17] was 2.69 µM and the IC50 [9, 18] was 2.82 µM. The IC50 [10, 17] was 0.562 µM, the IC50 [10, 18] was 0.631 µM and the IC50 [10, 16] was 0.295 µM. It also gave an IC50 [11, 17] of 0.9 µM, an IC50 [11, 18] of 1.04 µM and an IC50 [12, 17] of 0.501 µM. The IC50 [12, 18] was 0.938 µM.
